From paper PMC8745345, “Hydroxy Pentacyclic Triterpene Acid, Kaempferol, Inhibits the Human 5-Hydroxytryptamine Type 3A Receptor Activity” (International Journal of Molecular Sciences, 2022)
Changes are numbered by the printed parent chain.

Key:
[1] = target: T1, human 5-HT3A receptor D177A mutant (Homo sapiens, UniProt P46098, D199A); assay: Two-electrode voltage clamp, I5-HT inhibition, D177A mutant; assay type: cell-based; details: −80 mV
T1 sequence (P46098 24-478 D199A): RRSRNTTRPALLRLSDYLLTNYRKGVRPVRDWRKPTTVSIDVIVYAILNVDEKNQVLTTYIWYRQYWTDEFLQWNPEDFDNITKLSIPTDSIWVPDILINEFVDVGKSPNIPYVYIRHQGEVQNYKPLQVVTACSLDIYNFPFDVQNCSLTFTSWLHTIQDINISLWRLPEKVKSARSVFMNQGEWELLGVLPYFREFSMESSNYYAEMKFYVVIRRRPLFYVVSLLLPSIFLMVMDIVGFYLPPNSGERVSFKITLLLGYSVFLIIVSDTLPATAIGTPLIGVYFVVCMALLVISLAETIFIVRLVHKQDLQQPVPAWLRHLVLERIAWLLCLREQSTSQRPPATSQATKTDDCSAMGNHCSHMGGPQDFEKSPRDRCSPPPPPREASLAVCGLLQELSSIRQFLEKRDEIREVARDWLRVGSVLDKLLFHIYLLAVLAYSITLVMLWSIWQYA
Description: (§1) Xenopus oocytes were used in this study as cells for expression of human 5-HT3A receptor. All female frogs used in this experiment were obtained from the Korean Xenopus Resource Center for Research (KXRCR000001). […] Xenopus oocytes were extracted during ice incubation state and isolated as single oocytes using collagenase II (2 mg/mL) in OR2 buffer (82.5 mM NaCl, 2 mM KCl, 1 mM MgCl2, 5 mM HEPES, pH 7.4). Isolated oocytes were incubated with ND96 incubation buffer (96 mM NaCl, 2 mM KCl, 1 mM MgCl2, 1.8 mM CaCl2, 5 mM HEPES, 2.5 mM sodium pyruvate, and 50 mg/mL gentamycin, pH 7.4) at 18 °C until the experiment was performed. Human 5-HT3A receptor mRNA was injected into oocytes using a nanoinjector (Drummond Scientific, Broomall, PA, USA) with a mineral-filled 10 μL microdispenser (VWR, Piscataway, NJ, USA).
(§2) To confirm the KAE activity on the human 5-HT3A receptor, a two-electrode voltage clamp (OC-725C; Warner Instruments, Hamden, CT, USA) with a Digitata 1550A was used. For the experiment, induced-inward current was converted to digital data with pClamp 10 software (Axon Instruments, Union City, CA, USA). All experiments were performed at room temperature using an oocyte clamp equipped with Digidata. The membrane holding potential was −80 mV.
(§3) The voltage relationship experiment for confirming the relationship between induce-inward current and voltage, the voltage was varied from −80 mV to +60 mV using a ramp protocol. […] All recording data were analyzed using Clampfit 9.0 (Molecular Devices, San Jose, CA, USA). […]
(§4) All presented experiments were performed at least three times for scientific verification. […] Induced-inward current data were analyzed with SigmaPlot 10.0 software (Systat Software, Inc., San Jose, CA, USA). […]

[2] = target: T2, human 5-HT3A receptor T154A mutant (Homo sapiens, UniProt P46098, T176A); assay: Two-electrode voltage clamp, I5-HT inhibition, T154A mutant; assay type: cell-based; details: −80 mV
T2 sequence (P46098 24-478 T176A): T1 sequence (P46098 24-478 D199A) with T153A, A176D
Description: as §1, §2, §3, §4

[3] = target: T3, human 5-HT3A receptor N101A mutant (Homo sapiens, UniProt P46098, N123A); assay: Two-electrode voltage clamp, I5-HT inhibition, N101A mutant; assay type: cell-based
T3 construct: expressed in transfected cells; host or cells: Xenopus oocytes injected with mutant mRNA
T3 sequence (P46098 24-478 N123A): T1 sequence (P46098 24-478 D199A) with N100A, A176D
Description: Human 5-HT3A receptor cDNA was linearized using restriction enzyme XhoI. In vitro transcription was performed using an mMESSAGE mMACHINE T7 Transcription Kit (Thermo Fisher Scientific, Waltham, MA, USA). The final mRNA product was dissolved in 1X Diethyl Pyrocarbonate (RNase-free water) at a final concentration of 1 μg/μL and kept in a deep-freezer at −80 °C until used.
Xenopus oocytes were used in this study as cells for expression of human 5-HT3A receptor. All female frogs used in this experiment were obtained from the Korean Xenopus Resource Center for Research (KXRCR000001). […] Isolated oocytes were incubated with ND96 incubation buffer (96 mM NaCl, 2 mM KCl, 1 mM MgCl2, 1.8 mM CaCl2, 5 mM HEPES, 2.5 mM sodium pyruvate, and […], pH 7.4) at 18 °C until the experiment was performed. Human 5-HT3A receptor mRNA was injected into oocytes using a nanoinjector (Drummond Scientific, Broomall, PA, USA) with a mineral-filled 10 μL microdispenser (VWR, Piscataway, NJ, USA).
For the experiment, induced-inward current was converted to digital data with pClamp 10 software (Axon Instruments, Union City, CA, USA). All experiments were performed at room temperature using an oocyte clamp equipped with Digidata. The membrane holding potential was −80 mV.
The voltage relationship experiment for confirming the relationship between induce-inward current and voltage, the voltage was varied from −80 mV to +60 mV using a ramp protocol. Each microelectrode was filled with 3 M KCl having a resistance of 0.2 MΩ. Serotonin and KAE applied in the experiment were diluted in ND96 bath solution (96 mM NaCl, 2 mM KCl, 1 mM MgCl2, 1.8 mM CaCl2, and 5 mM HEPES, pH 7.5) to specified concentration. The rate of application of the reagent was 2 mL per minute. All recording data were analyzed using Clampfit 9.0 (Molecular Devices, San Jose, CA, USA). […]
All presented experiments were performed at least three times for scientific verification. […] Induced-inward current data were analyzed with SigmaPlot 10.0 software (Systat Software, Inc., San Jose, CA, USA).

[4] = design: method as in PMID 21428901; details: lipophilic, penetrates the lipid bilayer; cited from earlier work

Structure (SMILES): O=c1c(O)c(-c2ccc(O)cc2)oc2cc(O)cc(O)c12 [KAE, kaempferol]
- n (Hill coefficient) [1]: 1.3 ± 0.2
- IC50 ([1]; Table 1): 13.9 ± 4.2 µM
- Vmax ([1]; Table 1): 23.3 ± 13.4%
- IC50 [2]: 33.4 ± 7.9 µM
- Vmax [2]: 73.5 ± 9.4%
- n (Hill coefficient) [2]: 1.1 ± 0.4
- IC50 [3]: 56.4 ± 9.7 µM
- Vmax ([3]; N101A, −80 mV): 83.7 ± 8.6%
- n (Hill coefficient) ([3]; N101A, −80 mV): 1.1 ± 0.6
- ability to cross the blood-brain barrier (BBB) [4]: can cross the blood-brain barrier (BBB)
